According to publication PMC9996706, “A curcumin direct protein biosensor for cell‐free prototyping” (Engineering Biology, 2022):

Target: T1, EcCurA (E. coli curcumin reductase, double bond reductase) (Escherichia coli, UniProt P76113)
T1 construct: gene curA
T1 sequence (P76113 1-345): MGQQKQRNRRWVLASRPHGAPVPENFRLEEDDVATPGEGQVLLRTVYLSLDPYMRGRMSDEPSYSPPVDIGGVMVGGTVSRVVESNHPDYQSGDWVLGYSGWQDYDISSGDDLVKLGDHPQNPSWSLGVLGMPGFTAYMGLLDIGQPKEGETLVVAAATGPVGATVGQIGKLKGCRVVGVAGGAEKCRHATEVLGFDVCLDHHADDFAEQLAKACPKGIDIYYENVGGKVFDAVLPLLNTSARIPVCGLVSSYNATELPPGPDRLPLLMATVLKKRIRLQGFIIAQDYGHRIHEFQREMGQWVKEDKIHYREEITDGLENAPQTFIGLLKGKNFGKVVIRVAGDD
Experiment: fluorescence titration
Assay type: binding

COc1cc(/C=C/C(=O)CC(=O)/C=C/c2ccc(O)c(OC)c2)ccc1O [curcumin]
Kd: 8.39 µM
